In one experiment the target is T1, human 20S proteasome β1 (Homo sapiens, UniProt P28072).
T1 construct: purchased Boston Biochem
Kind of experiment: 20S Proteasome Assay, β1 selective substrate (Z-LLE-AMC). Conditions: typically tested as mannitol esters; for inhibition at 0.41 µM: concentration 0.41 μM; for inhibition at 0.33 µM: concentration 0.33 μM. The format is biochemical. The method, then: (§1) β1 Selective substrate: To 1 μL of test compound dissolved in DMSO in a 384-well microtiter plate is added 25 μL of assay buffer at 37° C. containing human PA28 activator (Boston Biochem, 12 nM final) with Z-LLE-AMC ([…]1 selective substrate) (15 μM final), followed by 25 μL of assay buffer at 37° C. containing human 20S proteasome (Boston Biochem, 0.25 nM final). Assay buffer is composed of 20 mM HEPES, 0.5 mM EDTA and 0.01% BSA, pH7.4. The reaction is followed on a BMG Galaxy plate reader (37° C., excitation 380 nm, emission 460 nm, gain 20). Percent inhibition is calculated relative to 0% inhibition (DMSO) and 100% inhibition (10 μM bortezomib) controls. Compound of formula (I) are typically tested in this assay as their mannitol esters (prepared as described above). The mannitol esters are hydrolyzed to the free active boronic acid species.

The next experiment addresses T2, human 20S proteasome β5 (Homo sapiens, UniProt P28074).
T2 construct: purchased Boston Biochem
Kind of experiment: 20S Proteasome Assay, β5 selective substrate (Ac-WLA-AMC). It counts as biochemical. The conditions noted are these: concentration 0.41 μM; typically tested as mannitol esters. As for the experimental part: as §1, with “β5” for “β1”, “384-well black” for “384-well”, “Ac-WLA-AMC (β5” for “Z-LLE-AMC ([…]1”

Consider `O=C(N[C@@H](CC1CC1)B(O)O)[C@H](Cc1ccccc1)NS(=O)(=O)c1ccc(Oc2ccccn2)cc1` [Compound 1, ((1R)-2-cyclopropyl-1-{[(2S)-3-phenyl-2-({[4-(pyridin-2-yloxy)phenyl]sulfonyl}amino)propanoyl]amino}ethyl)boronic acid], for which the inhibition at 0.41 µM against human 20S proteasome β1 came to 67.2%; at human 20S proteasome β5, 91.8%.

On to `O=C(N[C@@H](CC1CC1)B(O)O)[C@H](Cc1ccccc1)NS(=O)(=O)c1ccc(Oc2cccnc2)cc1` [Compound 2, ((1R)-2-cyclopropyl-1-{[(2S)-3-phenyl-2-({[4-(pyridin-3-yloxy)phenyl]sulfonyl}amino)propanoyl]amino}ethyl)boronic acid], for which the inhibition at 0.41 µM at human 20S proteasome β1 is 70.7%; at human 20S proteasome β5 it was 89%.

With `O=C(N[C@@H](CC1CC1)B(O)O)[C@H](Cc1ccccc1)NS(=O)(=O)c1ccc2ncsc2c1` [Compound 4, [(1R)-1-({(2S)-2-[(1,3-benzothiazol-6-ylsulfonyl)amino]-3-phenylpropanoyl}amino)-2-cyclopropylethyl]boronic acid], the inhibition at 0.41 µM against human 20S proteasome β1 is 73.2%; on human 20S proteasome β5, 89.8%.

On to `O=C(N[C@@H](CC1CC1)B(O)O)[C@H](Cc1ccccc1)NS(=O)(=O)c1ccc(-c2cnco2)cc1` [Compound 6, ((1R)-2-cyclopropyl-1-{[(2S)-2-({[4-(1,3-oxazol-5-yl)phenyl]sulfonyl}amino)-3-phenylpropanoyl]amino}ethyl)boronic acid], for which the results for the inhibition at 0.41 µM against human 20S proteasome β1 and against human 20S proteasome β5 were 65.4% and 92.9%, respectively.

`O=C(N[C@@H](CC1CC1)B(O)O)[C@H](Cc1ccccc1)NS(=O)(=O)c1cccc(Oc2ccc(C(F)(F)F)cn2)c1` [Compound 7, {(1R)-2-cyclopropyl-1-[((2S)-3-phenyl-2-{[(3-{[5-(trifluoromethyl)pyridin-2-yl]oxy}phenyl)sulfonyl]amino}propanoyl)amino]ethyl}boronic acid]: the values for the inhibition at 0.41 µM against human 20S proteasome β1 and against human 20S proteasome β5 were 81.3% and 93%, respectively.

In turn, `O=C(N[C@@H](Cc1ccccc1)C(=O)N[C@@H](CC1CC1)B(O)O)c1cc(Cl)ccc1Cl` [Compound 9, [(1R)-2-cyclopropyl-1-({(2S)-2-[(2,5-dichlorobenzoyl)amino]-3-phenylpropanoyl}amino)ethyl]boronic acid] registered an inhibition at 0.33 µM on human 20S proteasome β1 of 91.1%. For the same compound, testing at 0.41 µM against human 20S proteasome β5 gave an inhibition of 93.3%.

At human 20S proteasome β1, `O=C(N[C@@H](Cc1ccccc1)C(=O)N[C@@H](CC1CC1)B(O)O)c1cnccn1` [Compound 12, [(1R)-2-cyclopropyl-1-({(2S)-3-phenyl-2-[(pyrazin-2-ylcarbonyl)amino]propanoyl}amino)ethyl]boronic acid] returned an inhibition at 0.33 µM of 93%. This compound also displayed an inhibition at 0.41 µM on human 20S proteasome β5 of 81.9%.

For `CN1C(=O)Cc2cc(S(=O)(=O)N[C@@H](Cc3ccccc3)C(=O)N[C@@H](CC3CC3)B(O)O)ccc21` [Compound 13, {(1R)-2-cyclopropyl-1-[((2S)-2-{[(1-methyl-2-oxo-2,3-dihydro-1H-indol-5-yl)sulfonyl]amino}-3-phenylpropanoyl)amino]ethyl}boronic acid], the values for the inhibition at 0.41 µM against human 20S proteasome β1 and on human 20S proteasome β5 were 66.7% and 83.7%, respectively.

Regarding `O=C(N[C@@H](CC1CC1)B(O)O)[C@H](Cc1ccccc1)NS(=O)(=O)c1ccc(Oc2ccncc2)cc1` [Compound 14, ((1R)-2-cyclopropyl-1-{[(2S)-3-phenyl-2-({[4-(pyridin-4-yloxy)phenyl]sulfonyl}amino)propanoyl]amino}ethyl)boronic acid], the results for the inhibition at 0.41 µM at human 20S proteasome β1 and at human 20S proteasome β5 were 75.7% and 93.1%, respectively.

Turning to `O=C1COc2cc(S(=O)(=O)N[C@@H](Cc3ccccc3)C(=O)N[C@@H](CC3CC3)B(O)O)c(Cl)cc2N1` [Compound 15, {(1R)-1-[((2S)-2-{[(6-chloro-3-oxo-3,4-dihydro-2H-1,4-benzoxazin-7-yl)sulfonyl]amino}-3-phenylpropanoyl)amino]-2-cyclopropylethyl}boronic acid], the results for the inhibition at 0.41 µM at human 20S proteasome β1 and at human 20S proteasome β5 were 77.1% and 90.3%, respectively.

With `O=C(c1cccc(S(=O)(=O)N[C@@H](Cc2ccccc2)C(=O)N[C@@H](CC2CC2)B(O)O)c1)c1ccccn1` [Compound 16, ((1R)-2-cyclopropyl-1-{[(2S)-3-phenyl-2-({[3-(pyridin-2-ylcarbonyl)phenyl]sulfonyl}amino)propanoyl]amino}ethyl)boronic acid], the inhibition at 0.41 µM at human 20S proteasome β1 came to 82.7%; against human 20S proteasome β5 it was 90.8%.

In the case of `O=C(N[C@@H](CC1CC1)B(O)O)[C@H](Cc1ccccc1)NS(=O)(=O)c1cccc2cnccc12` [Compound 17, [(1R)-2-cyclopropyl-1-({(2S)-2-[(isoquinolin-5-ylsulfonyl)amino]-3-phenylpropanoyl}amino)ethyl]boronic acid], the inhibition at 0.41 µM against human 20S proteasome β1 was found to be 71.9%; at human 20S proteasome β5, 89.7%.

Source of the values: patent publication US9023832B2, “Derivatives of 1-amino-2-cyclopropylethylboronic acid” (Millennium Pharmaceuticals, Inc., priority 2010, dated 2015).
